According to ChEMBL document CHEMBL1137559, “Rational design of 5'-thiourea-substituted alpha-thymidine analogues as thymidine monophosphate kinase inhibitors capable of inhibiting mycobacterial growth” (J Med Chem, 2007):
The source made the active and inactive calls. No cut-off for these calls is given here.

Experiments:
Homo sapiens [1] = organism: Homo sapiens; assay: Inhibition of human TMPK expressed in Escherichia coli by spectrophotometric assay
Homo sapiens [2] = organism: Homo sapiens; assay: Inhibition of human TMPK expressed in Escherichia coli at 1 mM by spectrophotometric assay

Row | Km (Homo sapiens [1]) [µM] | SMILES | Activity (Homo sapiens [2])
1 | 5 | Cc1cn([C@H]2C[C@H](O)[C@@H](COP(=O)(O)O)O2)c(=O)[nH]c1=O | 
2 |  | Cc1cn([C@@H]2C[C@@H](CNC(=O)NC[C@H]3C[C@H](n4cc(C)c(=O)[nH]c4=O)O[C@@H]3CO)[C@H](CO)O2)c(=O)[nH]c1=O | inactive
